Patent publication US20200384079A1, “Compositions of Fibroblast Growth Factor LIgands and Methods of Treating Patients Undergoing Ischemia-Reperfusion Therapy” (University of Cincinnati, priority 2017, published 2020)
Entries after “also recorded” stand apart in the source; their conditions may differ. Read-outs that look alike come from different tables or passages of the source.

Tests used:
[1] = biological target: FGFR3c ectodomain (extracellular ligand binding domain of FGFR3c) (UniProt P22607); assay: ITC; FGF1 injected into FGFR3c ectodomain in the cell
[2] = system: in vivo rat model of myocardial infarction; assay: In vivo rat ischemia-reperfusion model, infarct size (TTC); set-up: species or system Sprague Dawley rats; settings: for effect on infarct size / cardioprotection (in words): FGF given at reperfusion with heparin co-therapy; for reduction in infarct size compared to saline/vehicle control: given i.v. at reperfusion alone (FGF 10 μg/kg; heparin 12 U/kg/hr); for effect on infarct size (in words): given at reperfusion, no heparin co-therapy
Procedure: CVR-2016-799R1 signaling and the other two sets were to evaluate the pharmacokinetic properties of native FGF1 and modified FGF1 (FGF1^ΔHBS). The first set of experiments was for the ischemia/reperfusion study in which animals were divided into six groups as follows: (1) saline group: saline treatment given intravenously for 10 minutes immediately upon reperfusion, (2) heparin group: heparin, 60 U/kg intravenous (i.v.) bolus, given immediately at reperfusion+12 U/kg/hr i.v. infusion for 120 minutes of reperfusion, (3) FGF1 group: FGF1, 10 μg/kg i.v. infusion, given for 10 minutes immediately at reperfusion, (4) FGF1+heparin: heparin, 60 U/kg bolus, given immediately upon reperfusion followed by FGF1, 10 μg/kg i.v. infusion, given for 10 minutes and 12 U/kg/hr i.v. infusion given for 110 minutes of reperfusion, (5) modified FGF1 (FGF1^ΔHBS) group: FGF1^ΔHBS, 10 μg/kg i.v. infusion, given for 10 minutes, or (6) FGF1^ΔHBS+heparin: heparin, 60 U/kg bolus, given immediately at reperfusion followed by FGF1^ΔHBS, 10 μg/kg i.v. infusion, given for 10 minutes and 12 U/kg/hr i.v. infusion for 110 minutes of reperfusion. All rats were subjected to 30 minutes of regional ischemia and 120 minutes of reperfusion. Drugs were administered at the onset of reperfusion via the jugular vein (FIG. 2A). […] A total of ninety-six rats was completed for the I/R study. Sample size for each group ranged from 9-16 depending on the power analysis. A total of thirty-five rats were excluded from the study based on the lack of cyanosis of the heart or typical elevation of the ST segment in the electrocardiogram during ischemia, and death from malignant arrhythmia. For the biodistribution or FGF1 signaling study, rats were randomly divided into six groups as described above (FIG. 2B). Following drug treatment (immediately following 15 minutes of treatment or 105 minutes post-treatment at the point which mimics the length of time of reperfusion), solid organs and blood (see sections “Tissue collection for exogenous FGF1 biodistribution” and “Cardiac preparation to detect the activation of FGF1 downstream molecules”) were collected. A total of 33 rats were used for biodistribution and FGF1 signaling studies, and 3 rats were excluded due to anesthetic overdose. Also, a total of 8 plasma samples were excluded because of hemolysis. For elimination half-life of native FGF1 and FGF1^ΔHBS, 12 rats were randomly divided into two groups and treated intraperitoneally with either FGF1 form as described in the section “Pharmacokinetic evaluation of exogenous FGF1 or FGF1^ΔHBS ”.
The in vivo I/R model was established by ligating and loosening the left anterior CVR-2016-799R1 descending artery (LAD) previously described by our laboratory. In brief, rats were anesthetized with thiobutabarbital sodium salt hydrate, Inactin® hydrate (100 mg/kg, i.p., Sigma-Aldrich), and intubated and artificially ventilated via a rodent respirator (respiratory rate: 75 strokes/minute; tidal volume: 3 mL; Model 683, Harvard, USA). The heart was exposed through a left thoracotomy and pericardiotomy, and a 6-0 silk suture was placed around the left anterior descending (LAD) coronary artery. After equilibration for 15 minutes, hearts were subjected to 30 minutes of ischemia by ligating the LAD via a snare occluder and reperfusion occurred for 120 minute via loosening the snare occluder. The appearance of cyanosis of the heart and significant ST-segment elevation in the electrocardiogram were used to verify successful ligation.
At the end of the ischemia-reperfusion injury study, the LAD was re-occluded with the suture used previously for the establishment of ischemia. 5% Evans blue dye solution was given via the jugular vein to define the area-at-risk (AAR). Then, the heart was arrested in diastole with 1 mL of 15% potassium chloride, and the animal was euthanized with an anesthetic overdose followed by a bilateral pneumothorax for removal of the heart. […]

[3] = system: in vivo rat model of myocardial infarction; settings: rat; for post-ischemic cardiac function (in words): given at reperfusion, no heparin co-therapy
[4] = Blood clotting time (tail nick); type: in vivo, rat; settings: for Clotting time: 15 mins post treatment, single agent
Procedure: In sets of experiments, blood clotting time was detected at baseline and 15 minutes after drug treatment. In brief, a nick 1-2 mm depth was made at 5 cm and 3 cm of the proximal tail for baseline and post-drug blood clotting time, respectively; the tail nick was blotted with 4×4 gauze every 15 seconds until bleeding totally stopped, and blood clotting time was recorded from the onset of bleeding until it stopped.
Heparan sulfate proteoglycans or heparin regulates the bioavailability of FGFs. In order to develop a “cardioprotective” FGF as a therapeutic against ischemic heart disease, it was necessary to elucidate the efficacy of these cardiac FGFs in the presence of heparin treatment. Therefore, native rhFGFs (FGF 1, 2, 4, or 5) or vehicle are infused intravenously (at dose indicated above) in conjunction with unfractionated (12 units/kg/hr, i.v.) or low molecular weight heparin (enoxaparin 1 mg·kg, s.c.) during the first 15 minutes of reperfusion (FIG. 12A), and post-ischemic recovery of cardiac function and the degree of myocardial infarction is assessed. […] Unfractionated or low molecular weight heparin is administered alone during early reperfusion to elucidate the cardioprotective effects of heparins against IR injury. Whether FGF administration alters heparin activity is evaluated. To assess this potential interaction, activated clotting time (ACT) is assessed in vehicle-treated or FGF-treated groups in the absence or presence of heparin co-administration. Baseline and 15 minute post-drug treatment ACT is determined. It has been established that a heparin response occurs within 1 minute after an intravenous dose in humans and that no more time is required to achieve a predicted ACT.

wildtype mouse hearts = assay: Ex vivo model, low-flow ischemia and reperfusion; settings: treatment at reperfusion, mouse hearts
From the text: FIGS. 12A-12B. […] Left bar is vehicle-treated and right bar is FGF2-treated wildtype mouse hearts.

trypsin = assay: Susceptibility to proteolytic degradation by trypsin (fluorescence emission); type: in vitro ADME
Procedure: Ligand bioavailability (i.e., pharmacokinetic mechanism) can be a significant pharmacological limitation for therapeutic applicability. […] Susceptibility to protease action of FGF1^ΔTS was determined by monitoring changes in fluorescence emission during degradation by trypsin, FGF1^ΔTS (20-fold increase) and FGF2 (7-fold increase) were more resistant to proteolytic degradation than the native FGF1. It remained to be elucidated as to whether these pharmacokinetic mechanisms I.e., bioavailability and/or half-life) were enhanced in vivo as well. Therefore, detection of the bioavailability and half-life of native and thermally stable mutated ligands (FGF^ΔTS) are carried out as follows: […]

[5] = rat, i.v.
ERK1/2 = ERK1/2 activation (phosphorylation) in left ventricle, immunoblot; type: in vivo, rat; settings: immediately post-treatment, no FGF+heparin co-treatment
Procedure: Hearts from rats treated with saline, native FGF1 or FGF1^ΔHBS in the presence or absence of heparin were collected immediately after administration and at 120 minutes post-treatment for evaluation of downstream signaling. One-half of each snap-frozen heart was powdered and homogenized in protein extraction buffer as previously described by our laboratory. For FGFR1, 150 μg of total protein were loaded onto a 8% SDS-PAGE gel, for ERK1/2 activation, 20 μg of whole cell protein homogenate was loaded onto a 15% SDS-PAGE gel, and for PKCα and PKCδ, […] of whole cell protein homogenate was loaded onto a 10% SDS-PAGE gel and then transferred to nitrocellulose membrane. 0.1% Ponceau S in 5% acetic acid was used to examine the transfer efficiency and loading equality as described previously 43. Membranes were blocked with 5% dry milk and then incubated with primary antibody against phospho-FGFR1 (Y-654, 1:500, Cell Signaling), phospho-ERK1/2 (1:1000, Cell Signaling) or phospho-PKCα (1:500, Santa Cruz) or phospho-PKCδ (1:500, Santa Cruz) followed by incubation with HRP-conjugated secondary goat anti-rabbit antibody (1:3000, Santa Cruz Biotechnology). Membranes were stripped and reprobed with antibodies against total FGFR1 (1:500, Cell Signaling), total ERK (1:1000, BD Transduction Labs) or total PKCα (1:500, Santa Cruz) or PKCδ (1:500, Santa Cruz). Bound antibodies were visualized by ECL system. Activation is indicated as a ratio of phosphorylated protein/total protein. β-actin (1:1000, Cell Signaling) was also used as a loading control.
Construction of his-tagged native and heparin-binding modified rhFGFs as well as their expression and purification is performed as previously described using his-tagged expression vectors and nickel-nitrilotriacetic acid resin columns. […] His-tagged FGFs are detected in solid organs by ELISA (FIG. 14) both for FGF and histidine (data not shown), and immunoprecipitation (IP) followed by immunoblot and in plasma by ELISA as described previously. His-tags are widely used because they are small and rarely interfere with function, activity, or structure of target proteins. […] There is no observed difference in total ERK or FGFR1 expression between the treatment groups.

[6] = biological target: FGFR3c ectodomain (extracellular ligand binding domain of FGFR3c) (UniProt P22607); assay: ITC; FGF1^ΔHBS injected into FGFR3c ectodomain in the cell
FGF receptors = settings: published data; cited from earlier work
[7] = rat, 30 min ischemia/120 min reperfusion, given i.v. at reperfusion alone (FGF 10 μg/kg; heparin 60 U/kg bolus + 12 U/kg/hr)

native FGF1 (recombinant human fibroblast growth factor 1) (from UniProt P05230 16-155) (ligand)
Kd [1]: 0.704 µM

FGF2: native recombinant human fibroblast growth factor 2
infarct size (% infarct, percentage of area-at-risk) ([2]; as E6 but FGF 10 μg/kg i.v. in the presence of heparin co-administration): 46%
infarct size (% infarct, percentage of area-at-risk) [2, 7]: 26%
effect on infarct size / cardioprotection (in words) ([2]; rat): significantly inhibited FGF2's reduction in infarct size
effect on infarct size / cardioprotection (in words) ([2]; rat, listed as rhFGF2): significantly inhibited rhFGF2-induced cardioprotection against MI
reduction in infarct size compared to saline/vehicle control ([2]; rat): 57%
reduction in infarct size compared to saline/vehicle control ([2]; rat, listed as RhFGF2): 70%
recovery of left ventricular (LV) developed pressure, % of baseline ([3]; FGF2 at reperfusion): 68%
post-ischemic cardiac function (in words) [3]: protects the heart from cardiac dysfunction; also recorded: improved relaxation compared to saline treatment
Clotting time [4]: 15 mins post rhFGF2 treatment: 192 +/− 120 sec (n = 5)
cardioprotection in ex vivo model (in words) (wildtype mouse hearts): protects the heart from post-ischemic cardiac dysfunction and myocardial infarction
increase in proteolytic resistance compared to native FGF1 (trypsin): 7 fold
tissue and plasma FGF distribution (in words) ([5]; FGF with heparin co-administration): no longer targeted to the heart
tissue and plasma FGF distribution (in words) ([5]; no FGF+heparin co-treatment): increased biodistribution heart (left ventricle)
tissue and plasma FGF distribution (in words) ([5]; no FGF+heparin co-treatment, listed as native FGF2): significantly targeted to the heart

Heparin sodium [reference compound]
infarct size (% infarct, percentage of area-at-risk) [2, 7]: 46%
effect on infarct size (in words) ([2]; rat): lowered infarct size but not to the degree of FGF2 treatment; also recorded: significantly reduced infarct size compared to saline
effect on infarct size (in words) ([2]; rat, listed as Heparin): reduced infarct size somewhat, but not to the degree of FGF2 treatment
reduction in infarct size compared to saline/vehicle control ([2]; rat): 31%
post-ischemic cardiac function (in words) [3]: no significant difference in post-ischemic contractility between the saline and heparin group
Clotting time [4]: 15 mins post-heparin treatment: 737 +/− 127 sec (n = 4)
blood clotting time post-treatment (in words) ([4]; baseline vs 15 minutes after drug treatment): significantly longer post-treatment than at baseline
ERK1/2 activation (phosphorylation) in left ventricle (in words) (ERK1/2): not different than saline treatment
tissue and plasma FGF distribution (in words) ([5]; no FGF+heparin co-treatment): no difference in saline or heparin treatment with regard to FGF1 levels

FGF1^ΔHBS (FGF1 carrying the K127D/K128Q/K133V triple mutation in its HS-binding site) (from UniProt P05230 1-155) (ligand)
Kd [6]: 0.432 µM

bisindolylmaleimide [GF109203X, reference compound]
effect of PKC inhibitor on FGF2-induced cardioprotection (infarct size) ([2]; rat, 1 mg/kg i.v., with FGF2, 1 mg/kg): abrogates the FGF2-induced cardioprotective effects of reduced myocardial infarct size; also recorded: abolished FGF2-induced cardioprotection

B1: FGF1^ΔTS: thermally stable mutant of FGF1 containing Q55P, S62I, and H108G FGF1-stabilizing mutations (protein, UniProt P05230 16-155, looked up, variant Q55P S62I H108G)
Fibroblast growth factor 1: FNLPPGNYKKPKLLYCSNGGHFLRILPDGTVDGTRDRSDPHIQLQLIAESVGEVYIKSTETGQYLAMDTDGLLYGSQTPNEECLFLERLEENGYNTYISKKHAEKNWFVGLKKNGSCKRGPRTHYGQKAILFLPLPVSSD
effect on infarct size (in words) ([2]; rat): marked reduction in infarct size compared to native FGF1 at the same dose; also recorded: more efficacious in reducing infarct size compared to the same dose of native FGF1
increase in proteolytic resistance compared to native FGF1 (trypsin): 20 fold
activation of FGF receptors (ERK activation, cell proliferation) (in words) (FGF receptors): greater than the native FGF1
